Earlier results, collected in patent US6638906B1, “Amphiphilic polymers and polypeptide conjugates comprising same” (Nobex Corporation, priority 1999, dated 2003).

Legend:
native CCK cells = conditions: versus vehicle/basal secretion
food intake = conditions: infused into the duodenum of rats with trypsin inhibitors
[1] = test system: pancreatic protein output; conditions: infused into the duodenum of rats
CCK release = conditions: relative to LCRF

luminal cholecystokinin releasing factor [Native LCRF]
increase in CCK secretion (STC-1 cells): ~300% | increase in CCK secretion (native CCK cells): ~300% | effect on food intake (food intake): causes a reduction of food intake | dose-response of pancreatic protein output [1]: biphasic dose-response of curve of pancreatic protein output is observed, with higher doses of LCRF leading to decreased pancreatic protein output

B1: monitor peptide: peptide secreted into the intestines that controls CCK release by positive feedback regulation (protein, UniProt P09655 19-79, looked up)
Serine protease inhibitor …: GNPPAEVNGKTPNCPKQIMGCPRIYDPVCGTNGITYPSECSLCFENRKFGTSIHIQRRGTC
potency for stimulating CCK release, fold less than LCRF (CCK release): 6 fold

B2: diazepan binding inhibitor: peptide secreted into the intestines found to stimulate CCK release (protein, UniProt P07108 2-87, looked up)
Acyl-CoA-binding protein: SQAEFEKAAEEVRHLKTKPSDEEMLFIYGHYKQATVGDINTERPGMLDFTGKAKWDAWNELKGTSKEDAMKAYINKVEELKKKYGI
potency for stimulating CCK release, fold less than LCRF (CCK release): 100-1,000 fold
